Results: PubChem BioAssay (NCI)
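Results reflect a 48-hour exposure of cells in 96-well plates to compound at five concentrations. At the GI50, growth is halved. TGI: total growth inhibition.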

Experiments:
Assay in all cases: NCI tumour cell line growth inhibition, 48 h
SF-295 CNS = test system: SF-295 CNS
A549 NSCLC = test system: A549 NSCLC
COLO 205 colon = test system: COLO 205 colon
HT29 colon = test system: HT29 colon
LOX IMVI melanoma = test system: LOX IMVI melanoma
SR leukemia = test system: SR leukemia
SK-OV-3 ovarian = test system: SK-OV-3 ovarian
HS 578T breast = test system: HS 578T breast
KM12 colon = test system: KM12 colon
NCI-H23 lung = test system: NCI-H23 lung

| Compound | GI50 (SF-295 CNS) [µM] | TGI (SF-295 CNS) [µM] | GI50 (A549 NSCLC) [µM] | TGI (A549 NSCLC) [µM] | GI50 (COLO 205 colon) [µM] | TGI (COLO 205 colon) [µM] | GI50 (HT29 colon) [µM] | TGI (HT29 colon) [µM] | GI50 (LOX IMVI melanoma) [µM] | TGI (LOX IMVI melanoma) [µM] | GI50 (SR leukemia) [µM] | TGI (SR leukemia) [µM] | GI50 (SK-OV-3 ovarian) [µM] | TGI (SK-OV-3 ovarian) [µM] | GI50 (HS 578T breast) [µM] | TGI (HS 578T breast) [µM] | GI50 (KM12 colon) [µM] | TGI (KM12 colon) [µM] | GI50 (NCI-H23 lung) [µM] | TGI (NCI-H23 lung) [µM] |
| --- | --- | --- | --- | --- | --- | --- | --- | --- | --- | --- | --- | --- | --- | --- | --- | --- | --- | --- | --- | --- |
| CO[C@H]1CC[C@@]2(C)C(=CC[C@H]3[C@@H]4C[C@H](O)C[C@@]4(C)CC[C@@H]32)C1 | 2.45 | 8.02 | 4.42 | 19.6 | 5.02 | 16.2 | 3.59 | 12.4 | 6.17 | 24.5 | 2.72 | 14.9 | 4.46 | 49 | 2.16 | 9.41 | 4.5 | 15.8 | 5.54 | 27.1 |
| CC1(C)C2CCC13C(=O)C1OC3(C2)C2C(=O)c3c(O)ccc(O)c3C(=O)C12 (centres undefined) | 25.2 | > 100 | 46.6 | > 100 | 25.9 | > 61.5 | 34.1 | > 83.4 | 32.2 | > 100 | 5.17 | 17.1 | 42.2 | > 100 |  | > 54.4 | > 50.4 | > 100 | 16.4 | 37.5 |
| CCN(CC)CCOc1cc2c(C(=O)OC)c(C)oc2cc1C(C)=O | 14.8 | 29.1 | 18.5 | 38.4 | 8.27 | 26.6 | 17 | 94.9 | 10.2 | 22 | 2.58 | 6.72 | 14.7 | 30.2 | 13.4 | 31.4 | 4.45 | 21.1 | 11.8 | 27.7 |
| NC(=S)N/N=C(/C(=O)Nc1nc2ccc([N+](=O)[O-])cc2s1)C1C(=O)NC(=S)NC1=O |  | > 100 |  | > 100 |  | > 100 |  | > 100 |  | > 100 |  | > 100 |  | > 100 |  | 74.3 |  | > 100 |  | > 100 |
| CCCC(=O)NNc1[nH]c(-c2ccc(OC)cc2)cc1C(=O)OCC | 38 | > 100 | 21.5 | 44.8 | 2.39 | 5.89 | 17.4 | 34.3 | 16.8 | 30.5 | 28.3 | > 100 | > 100 | > 100 | 21.7 | 57.9 | 37.7 | > 100 | 14.9 | 38 |
| Nc1nccc(Nc2ccc(S(N)(=O)=O)cc2)n1 |  | > 100 |  | > 100 |  | > 100 |  | > 100 |  | > 100 |  | > 100 |  | > 100 |  | > 100 |  | > 100 |  | > 100 |
| COC(=O)Nc1nc2ccc(Oc3ccc(NC(=O)Nc4cccc(Cl)c4)cc3)cc2[nH]1 | 0.777 | 6.59 | 2.02 | 8.87 | 0.916 | 3.07 | 0.682 | 3.48 | 1.42 | 6.6 | 0.144 | > 14.3 | 1.03 | 4.62 | 0.553 | 9.67 | 0.147 | 3.8 | 2.24 | 12.9 |
| O=C1/C(=C/c2ccc(Cl)cc2)CN(C(=O)C(Cl)Cl)C/C1=C\c1ccc(Cl)cc1 | 0.214 | 0.683 | 0.275 | 1.05 | 0.233 | 0.756 | 0.0714 | 1.43 | 0.0321 | 0.121 | 0.0395 | > 40.1 | 0.531 | 1.74 | 0.312 | 2.33 | 0.0912 | 0.273 | 0.242 | 0.887 |
| O=C(O)CC1(C(=O)O)CCCCC1 |  | > 100 |  | > 100 |  | > 100 |  | > 100 |  | > 100 |  | > 100 |  | > 100 |  | > 100 |  | > 100 |  | > 100 |
| O=C1/C(=C/C(Cl)=C/c2ccccc2)SC(=S)N1CCc1ccc(O)cc1 | 3.57 | 15.9 | 2.85 | > 100 | 2.27 | 7.69 | 2.11 | 5.57 | 1.27 | 2.74 | 0.86 | > 100 | 5.53 | > 100 | 3.24 | > 100 | 1.49 | 3.03 | 2.42 | 7.85 |
| CCOC(=O)c1cc2ncccc2c2ccccc12 |  | > 100 |  | > 100 |  | > 100 |  | > 100 |  | > 100 |  | > 100 |  | > 100 |  | > 100 |  | > 100 |  | > 100 |
| CN(CCC(=O)O)S(=O)(=O)c1ccccc1 |  | > 100 |  | > 100 |  | > 100 |  | > 100 |  | > 100 |  | > 100 |  | > 100 |  | > 100 |  | > 100 |  | > 100 |
| CN(C)CC1CCn2c(c(C3=C(c4cn(C)c5ccccc45)C(=O)NC3=O)c3ccccc32)C1 (centres undefined) | 4.46 | 9.06 | 4.5 | 9.06 | 3.42 | 7.51 | 3.16 | 7.83 | 3.86 | 7.83 | 4.26 | 12.7 | 4.62 | 10.5 | 2.31 | 7.36 | 4.14 | 8.26 | 4.71 | 11.3 |
| COc1ccc(F)cc1C(=O)c1cnc(NC2CCN(S(C)(=O)=O)CC2)nc1N | 1.68 | > 15.5 | 3.14 | > 23.7 | 1.25 | 5.22 | 2.86 | > 18.2 | 2.09 | > 25 | 0.885 | > 14.8 | 8.82 | > 25 | 3.93 | 17.8 | 2.4 | > 25 | 2.97 | 16.7 |
